“And” between values parts separate entries of the source, which are not always exact repeats. Equal entries are not always repeated.
Columns and labels:
[1] = system: Drosophila melanogaster transheterozygous larvae; assay: Genotoxicity (single treatment), Drosophila wing spot test (SMART); assay type: in vivo; parameters: key to Mann-Whitney Test: n.s.: non-significant; details: single treatment; for Mann-Whitney Test: vs negative control
Method: (§1) The principles and basic procedures for the Drosophila wing spot test have been described by Graf et al., and in previous works of our group. Two strains of flies carrying wing genetic markers on the left arm of chromosome 3: multiple wing […] used. The transheterozygous larvae were obtained by crossing […] (Third Multiple 3), Bd^S(Beaded […]) virgin females. Hybrid eggs derived from crossing optimally fertile flies were collected over an 8 h period. […] Concurrent negative controls with the solvent alone (water) and positive controls with hydrogen peroxide (120 mM) were also run. Anti-genotoxicity tests were carried out by mixing the mutagen (hydrogen peroxide, 120 mM) with the compounds solution. After emergence, adult flies were collected from the treatment vials and stored in 70% ethanol. The wings of the flies were removed under a stereomicroscope using a pair of entomological tweezers, similar number of males and females-wings were mounted in Faure's solution on microscope slides and inspected, under 400× magnification, for the presence of clones of cells. The mutant clones were classified into three types: […] The appearance of twin spots indicated the recombinogenic activity of the chemotherapeutic agent (Figure 1). The frequencies of spots per fly of treated series were compared with its corresponding negative control series (water) to analyze Somatic Mutation and Recombination Test (SMART) data. For maximum power, statistical analyses were done exclusively for the total number of spots recovered. The non-parametric U test of Mann, Whitney and Wilcoxon was used to avoid weak positive and inconclusive results on SMART and to achieve a well-defined statistical diagnosis whether a given treatment should be regarded as genotoxic or not. The inhibition percentages (IP) were calculated using the total spots per wing with the following formula [16, 36]: IP = ((Genotoxine alone - Genotoxine plus active compound)/Genotoxine alone) × 100

[2] = system: Drosophila melanogaster transheterozygous larvae; assay: Anti-genotoxicity (combined treatment with hydrogen peroxide 120 mM), Drosophila wing spot test (SMART); assay type: in vivo; parameters: key to Mann-Whitney Test: n.s.: non-significant; details: combined treatment with H2O2 120 mM; for Mann-Whitney Test: vs negative control
Method: as §1

HL60 cells [3] = assay: Cytotoxicity assay, trypan blue exclusion; assay type: cell-based, human; details: HL60, 72 h, trypan blue exclusion, at the tested concentrations
Method: Therefore, all the cells that exclude the dye are viable. Non-viable cells stained purple-violet, whereas viable ones remained unstained. Trypan blue was added to cell cultures at a 1:1 ratio, and 20 μL of cell suspension was loaded into a Neubauer chamber. The cells were counted under an inverted microscope at 100× magnification. […] Curves are expressed as survival percentage with respect to controls growing at 72 h. All data represent the average of at least three independent experiments.

HL60 cells [4] = assay: Nucleosomal DNA fragmentation assay; assay type: cell-based, human; details: HL60, 5 h, same concentrations as in the cytotoxicity assay, agarose gel
Method: The HL60 tumoral cell line was used with the aim of analyse the apoptotic induction. […] A non-treated cells control was included for each experiment. For DNA fragmentation, treated cells were collected, were centrifuged at 4000 rpm for 5 min and washed with PBS. […] The agarose gels were run at 50 V for 90 min in TBE (Tris/Borate/EDTA) buffer and then observed and photographed under UV light. For Annexin V-PI test, Annexin V Apoptosis Detection Kit ([…] Biotech S.L., Cordoba, Spain) was used. Briefly, cells were resuspended in 100 μL of Binding buffer solution 1× and subsequently, 5 μL AnnexinV-FITC (Fluorescein isothiocyanate) and 10 μL propidium iodide were added, and samples were incubated for 10 min at room temperature in darkness, and flow cytometry (Beckman Coulter Inc., Brea, CA, USA) was then used to analyze the rate of apoptosis.

SP6.5 cell line = system: SP6.5 cell line; parameters: method as in PMID 24223611; details: SP6.5 human uveal melanoma cell line; read-out: IC50 (cell viability); cited from earlier work
C918 cell line = system: C918 cell line; parameters: method as in PMID 24223611; details: C918 human uveal melanoma cell line; read-out: IC50 (cell viability); cited from earlier work
[5] = system: normal ocular cells (uveal melanocytes, retinal pigment epithelial cells, and scleral fibroblasts); parameters: method as in PMID 24223611; details: highest level tested 300 μM; cited from earlier work

## CC1=C(/C=C/C(C)=C/C=C/C(C)=C/C=C/C=C(C)/C=C/C=C(C)/C=C/C2=C(C)C[C@@H](O)CC2(C)C)C(C)(C)C[C@H](O)C1 [Zeaxanthin, zeaxanthin]
[1]; 0.0001 μM
  Large Spots (>2 Cells) m = 5: 0.00 (0) clones per wing
  Small Spots (1–2 Cells) m = 2: 0.05 (2) clones per wing
  Total Spots m = 2: 0.05 (2) clones per wing
  Twin Spots m = 5: 0.00 (0) clones per wing
  Mann-Whitney Test: n.s.
[1]; 0.105 μM
  Large Spots (>2 Cells) m = 5: 0.03 (1) clones per wing
  Small Spots (1–2 Cells) m = 2: 0.10 (4) clones per wing
  Total Spots m = 2: 0.15 clones per wing and 0.15 (6) clones per wing
  Twin Spots m = 5: 0.03 (1) clones per wing
  Mann-Whitney Test: n.s.
[2]; 0.0001 μM
  Large Spots (>2 Cells) m = 5: 0.00 (0) clones per wing
  Small Spots (1–2 Cells) m = 2: 0.03 (1) clones per wing
  Total Spots m = 2: 0.05 (2) clones per wing
  Twin Spots m = 5: 0.03 (1) clones per wing
  Mann-Whitney Test: n.s.
[2]; 0.105 μM
  Large Spots (>2 Cells) m = 5: 0.00 (0) clones per wing
  Small Spots (1–2 Cells) m = 2: 0.07 (2) clones per wing
  Total Spots m = 2: 0.07 (2) clones per wing
  Twin Spots m = 5: 0.00 (0) clones per wing
  Mann-Whitney Test: n.s.
HL60 cells [3]
  cytotoxic effect (tumoral viability): slight cytotoxic activities
HL60 cells [4]
  internucleosomal DNA fragmentation ladder pattern: did not show any internucleosomal fragmentation ladder pattern
SP6.5 cell line
  IC50: 40.8 µM
C918 cell line
  IC50: 28.7 µM
[5]
  effect on viability of normal ocular cells: did not affect the viability
